{
  "source": "patent US11752116B2",
  "about": "“Method of viral inhibition” (priority 2013, dated 2023)",
  "key": {"DENV-2 NS5 / IMPα/β": {"biological_target": "DENV-2 NS5 / IMPα/β (Dengue virus type 2, UniProt P14340)", "assay": "AlphaScreen binding of His6-NS5 to IMPα/β heterodimer", "details": "3 nM His6-NS5, 10 nM IMPα/β, increasing concentrations of compound", "description": "AlphaScreen®, a luminescent bead-based assay that measures direct protein-protein interactions, was used to examine the binding of 3 nM His6-NS5 to 10 nM IMPα/β (IMPα/β heterodimer containing biotinylated IMPβ1) in the presence of increasing concentrations of 4-HPR, 4-MPR or ATRA (FIG. 1A), or 4-oxo-4-HPR, 4-HPR or 4-MPR (FIG. 1B). Data are the mean±standard deviation (SD) of triplicate wells from a single typical experiment.\nTo investigate the specificity of 4-HPR inhibition of NS5-importin association, the binding of 30 nM His6-NS5 to 10 nM IMPα/β, (IMPα/β heterodimer containing biotinylated IMPβ1), 3 nM IMPαΔIBB (biotinylated IMPa with the IMPβ-binding domain removed), or 3 nM biotinylated IMPβ1, in the presence of increasing concentrations of 4-HPR, was investigated."}, "DENV-2 [1]": {"system": "DENV-2", "assay": "DENV-2 infectivity assay in Vero cells, viral RNA copies in culture medium by RT-PCR", "format": "cell-based", "details": "MOI of 1; for effect on DENV infection (viral RNA copies at 24 h p.i.): 10 μM compound", "description": "To test the specificity of 4-HPR and 4-oxo-4-HPR for anti-DENV activity Vero cells were infected with DENV-2 with a multiplicity of infection (MOI) of 1, in the presence of drug diluent (untreated) or the indicated compounds (10 μM in FIG. 3A, or 10 μM or 5 μM as indicated in FIG. 3B) for 2 h, followed by removal of the virus/drug inoculums, and addition of fresh 2% FCS maintenance medium. At 24 h post infection (p.i.) the culture medium was collected and the viral RNA extracted using QIAamp viral RNA mini kit (Qiagen). Absolute RNA copies present in each sample were determined by Taqman One Step RT-PCR (Applied Biosystems), as an estimate of virus titre by extrapolation from a standard curve generated from in vitro transcribed DENV RNA. Data shown are the mean+standard error of the mean (SEM) for 3 (FIG. 3A) or 2 (FIG. 3B) independent experiments. Statistical analysis (Student's ttest) was performed using GraphPad Prism software."}, "DENV-2 [2]": {"system": "DENV-2", "assay": "Delayed addition in DENV-2 infected Huh-7 cells, NS1 RNA by qPCR", "format": "cell-based", "description": "To gain further insight into the mode of action of 4-HPR, the human liver carcinoma cell line, Huh-7 cells were infected with DENV-2 (MOI of 1), followed by delayed addition of drug diluent DMSO (DENV only), 7.5 μM 4-HPR, 7.5 μM 4-MPR or 10 μM NITD008 (a previously described adenosine nucleoside inhibitor), 12 h post infection. Cells were lysed at the indicated times, RNA was extracted by Trizol and analysed by qPCR with fold change in expression of NS1 calculated relative to the untreated control (FIG. 5B). Concurrently, culture medium was collected and viral titres determined by plaque assay (FIG. 5C)."}, "DENV-4": {"system": "DENV-4", "assay": "Cell-based flavivirus immunodetection assay in BHK-21 cells, DENV-4", "details": "BHK-21 cells, 48 h p.i.", "description": "(§1) To investigate this, BHK-21 cells were infected with DENV serotypes 1, 2, 3 or 4 (MOI of 0.3) for 1 h in the presence of 4-HPR or 4-MPR (concentrations as indicated in FIG. 6A). Virus inoculum was removed and fresh media containing the indicated compounds was added. Virus infection rates were determined 48 h p.i. using a cell-based flavivirus immunodetection assay. Briefly, cells were fixed and stained for DENV structural protein, E, followed by addition of Alexa Fluor 488 anti-mouse IgG. Viral antigen quantification was performed using Imagexpress. Data shown are representative of a single experiment"}, "DENV-3": {"system": "DENV-3", "assay": "Cell-based flavivirus immunodetection assay in BHK-21 cells, DENV-3", "details": "48 h p.i.", "description": "as §1"}, "CHIKV": {"system": "CHIKV", "assay": "CHIKV infection of HEK293T cells, plaque assay", "format": "cell-based", "details": "5 μM, 24 h p.i.", "description": "HEK293T cells were treated with 5 μM 4-HPR or 4-MPR for 2 h, then infected with CHIKV for 1 h (MOI of 0.1) in the absence of compound (FIG. 9A). Alternatively, HEK293T cells were infected with CHIKV for 1 h (MOI of 0.1) without pre-treating the cells with compound (FIG. 9B). In both instances, virus inoculums were removed, then fresh medium containing the indicated compound was added (FIG. 9A and FIG. 9B). Infectious virus titres were determined by plaque assay 24 h p.i. Data are the mean+standard deviation of one experiment performed in duplicate wells, represented as plaque forming units per ml (PFU/ml)."}, "DENV-2 [3]": {"system": "DENV-2", "assay": "Cell-based flavivirus immunodetection assay in BHK-21 cells, DENV-2", "details": "BHK-21 cells, 48 h p.i.", "description": "as §1"}, "DENV-1 [4]": {"system": "DENV-1", "assay": "Cell-based flavivirus immunodetection assay in BHK-21 cells, DENV-1", "details": "48 h p.i.", "description": "as §1"}, "DENV-1 [5]": {"system": "DENV-1", "assay": "ADE-mediated DENV-1 infection of human PBMCs, plaque assay", "format": "cell-based", "details": "ADE-mediated DENV-1 infection, 48 h", "description": "The antiviral activity of 4-HPR was investigated in the more physiologically relevant human system of peripheral blood mononuclear cells (PBMCs), a major target of DENV infection in humans.\nPBMCs were prepared from a healthy donor buffy coat using a Ficoll gradient, prior to ADE-mediated DENV-1 infection (MOI of 10) in the presence of increasing concentrations of 4-HPR or 4-MPR, and infectious virus titres determined by plaque assay 48 h later."}, "[6]": {"system": "West Nile virus, Kunjin strain (WNVKUN)", "assay": "West Nile virus (Kunjin strain) infection of Vero cells, plaque assay", "format": "cell-based", "details": "Vero cells", "description": "FIG. 9C. Viral titre from a plaque assay conducted from Vero cells infected with West Nile virus (Kunjin strain; WNVKUN) after treatment with 10 μM 4-HPR for 4 h."}},
  "data": [
    {"smiles": "CC1=C(/C=C/C(C)=C/C=C/C(C)=C/C(=O)Nc2ccc(O)cc2)C(C)(C)CCC1=O", "note": "[4-oxo-4-HPR, N-(4-hydroxyphenyl)-4-oxoretinamide]", "values": [
      {"measurement": "block of association of DENV-2 NS5 with IMPα/β", "setting": "DENV-2 NS5 / IMPα/β", "value": "able to block association"},
      {"measurement": "reduction in viral RNA copies at 24 h p.i.", "setting": "DENV-2 [1]; 5 μM compound for 2 h during infection", "value": 1, "unit": "log"}
    ]},
    {"smiles": "CC1=C(/C=C/C(C)=C/C=C/C(C)=C/C(=O)O)C(C)(C)CCC1", "note": "[ATRA, all-trans retinoic acid]", "values": [
      {"measurement": "block of association of DENV-2 NS5 with IMPα/β", "setting": "DENV-2 NS5 / IMPα/β", "value": "neither ATRA nor 4-MPR were able to disrupt association"},
      {"measurement": "effect on DENV infection (viral RNA copies at 24 h p.i.)", "setting": "DENV-2 [1]", "value": "no effect on DENV infection"}
    ]},
    {"smiles": "COc1ccc(NC(=O)/C=C(C)/C=C/C=C(C)/C=C/C2=C(C)CCCC2(C)C)cc1", "note": "[4-MPR, N-(4-methoxyphenyl) retinamide]", "values": [
      {"measurement": "viral RNA levels (NS1 qPCR)", "setting": "DENV-2 [2]; 7.5 μM added 12 h p.i., up to 60 h p.i.", "value": "viral RNA levels increased steadily until 60 h p.i."},
      {"measurement": "effect on replication of DENV serotype 4", "setting": "DENV-4", "value": "did not have any effect"},
      {"measurement": "block of association of DENV-2 NS5 with IMPα/β", "setting": "DENV-2 NS5 / IMPα/β", "value": "neither ATRA nor 4-MPR were able to disrupt association"},
      {"measurement": "effect on replication of DENV serotype 3", "setting": "DENV-3", "value": "did not have any effect"},
      {"measurement": "reduction of infectious CHIKV produced", "setting": "CHIKV; HEK293T cells pre-treated 2 h with compound", "value": "did not reduce CHIKV titres"},
      {"measurement": "reduction of infectious CHIKV produced", "setting": "CHIKV; HEK293T cells, compound added after infection", "value": "did not reduce CHIKV titres"},
      {"measurement": "effect on replication of DENV serotype 2", "setting": "DENV-2 [3]", "value": "did not have any effect"},
      {"measurement": "effect on DENV infection (viral RNA copies at 24 h p.i.)", "setting": "DENV-2 [1]", "value": "no effect on DENV infection"},
      {"measurement": "effect on replication of DENV serotype 1", "setting": "DENV-1 [4]", "value": "did not have any effect"},
      {"measurement": "reduction of infectious virus titre in infected PBMCs", "setting": "DENV-1 [5]", "value": "no reduction"},
      {"measurement": "antiviral activity against WNVKUN", "setting": "[6]", "value": "no antiviral activity"}
    ]},
    {"smiles": "C#C[C@@]1(O)[C@H](O)[C@@H](CO)O[C@H]1n1ccc2c(N)ncnc21", "note": "[NITD008]", "values": [
      {"measurement": "viral RNA levels (NS1 qPCR)", "setting": "DENV-2 [2]; 10 μM added 12 h p.i.", "value": "reduced RNA levels"}
    ]},
    {"smiles": "C/C(=C\\c1ccc(C(=O)O)cc1)c1ccc2c(c1)C(C)(C)CCC2(C)C", "note": "[arotinoid acid]", "values": [
      {"measurement": "effect on DENV infection (viral RNA copies at 24 h p.i.)", "setting": "DENV-2 [1]", "value": "no effect on DENV infection"}
    ]},
    {"smiles": "CC1=C(/C=C/C(C)=C/C=C/C(C)=C\\C(=O)O)C(C)(C)CCC1", "note": "[13-cis retinoic acid]", "values": [
      {"measurement": "effect on DENV infection (viral RNA copies at 24 h p.i.)", "setting": "DENV-2 [1]", "value": "no effect on DENV infection"}
    ]}
  ]
}
